Data reported in US5635510A, “Substituted pyrrolidin-3-yl-alkyl-piperidines” (Merrell Pharmaceuticals Inc., priority 1994, dated 1997).

Biological target: T1, NK2 receptor (Bos taurus, UniProt P05363)
T1 construct: expressed in transfected cells; host or cells: SKLKB82#3 cells
T1 sequence (P05363 1-384): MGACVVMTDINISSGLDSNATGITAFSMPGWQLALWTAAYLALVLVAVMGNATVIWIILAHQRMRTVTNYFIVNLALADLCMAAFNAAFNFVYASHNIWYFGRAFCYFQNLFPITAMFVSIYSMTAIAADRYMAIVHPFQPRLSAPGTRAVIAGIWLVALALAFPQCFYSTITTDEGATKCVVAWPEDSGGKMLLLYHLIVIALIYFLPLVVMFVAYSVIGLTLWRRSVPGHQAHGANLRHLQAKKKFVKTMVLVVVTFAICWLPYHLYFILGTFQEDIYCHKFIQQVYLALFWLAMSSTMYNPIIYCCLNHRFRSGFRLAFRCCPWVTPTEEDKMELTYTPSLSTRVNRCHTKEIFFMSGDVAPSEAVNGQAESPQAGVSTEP
Test: Antagonism of NK2 receptor mediated (NKA-induced) phosphatidylinositol turnover in SKLKB82#3 cells
Type: cell-based
Procedure: Tachykinin-mediated inositol phosphate accumulation was measured in UC11 or SKLKB82#3 cells in the presence and absence of NK1 or NK2 receptor antagonists, respectively. Tissues were incubated in Krebs-Henseleit buffer at 37° C. with 95% O2 -5% CO2 gassing. Tissues were then incubated with fresh buffer containing 100 μCi of myo-[2-3H(N)] inositol at 37° C. for 60 min with gentle gassing. After washing twice in 5 ml room temperature buffer containing 10 mM LiCl, tissues were incubated for 30 min at room temperature with a buffer change at 15 min. Buffer was removed and Krebs-Henseleit buffer (containing 40 μg/ml bacitracin, 4 μg/ml each of leupeptin and chymostatin, 0.1% bovine serum albumin and 10 mM each of thiorphan and LiCl) added. After 15 min, SP was added to UC11 cells or NKA to SKLKB82#3 cells at various concentrations to start the reaction. After incubation for 60 min at room temperature the reaction was terminated by addition of 930 μl chloroform: methanol (1:2 by volume) to each tube, followed by 310 μl chloroform and 310 μl doubly distilled water. Samples were vortexed, centrifuged, and 0.9 ml of the aqueous (top) phase removed and added to 2 ml ddH2 O. The mixture was vortexed and loaded onto a 50% Bio-Rad AG 1-X8 (formate form, 100-200 mesh) exchange column (Bio-Rad Laboratories, Hercules, Calif.). The columns were washed, in order, with: 1) 10 ml doubly distilled water, 2) 5 ml of 5 mM disodium tetraborate/60 mM sodium formate, and 3) 5 ml of 1M ammonium formate/0.1M formic acid. The third elution was collected and 1 ml counted in 7 ml scintillation fluid. A 50 μl aliquot of the organic (bottom) phase was removed, dried in a scintillation vial and counted in 7 ml scintillation fluid.
The ratio of DPM in the aqueous phase aliquot (total inositol phosphates) to the DPM in the 50 μl organic phase aliquot (total [^3 H]inositol incorporated) was calculated for each sample. Data are expressed as a percent of agonist-induced accumulation of [^3 H]-inositol phosphates over basal levels. […] Dose-response graphs were constructed and the abilities of the test compounds to inhibit tachykinin-induced phosphatidyinositol turnover determined with the aid of a computer program. […] Data is expressed as percent stimulation of total inositol phosphate accumulation over basal levels and normalized to the maximum response produced by SP. […] Schild analysis is performed using dose response curves (such as those presented in FIGS. 1a and 1b) to obtain a value indicative of the strength of a competitive antagonist and is expressed as the pA2, which is the negative logarithm of the molar concentration of antagonist which reduces the effect of a dose of agonist to one-half of that expected at the dose of agonist.

Structure (SMILES) | antagonism of NKA-induced PI turnover (in words) (SKLKB82#3 cells, FIG. 1b) | Kb | NK-2 receptor slope (SKLKB82#3 cells, NKA, Schild slope, mean (95% confidence limits))
COc1cc(C(=O)N2CCC(CCN3CCC(C(N)=O)(c4ccccc4)CC3)(c3ccc(Cl)c(Cl)c3)C2)cc(OC)c1OC (stereo not drawn) [Example 3, 1-[2-[3-(3,4-dichloro-phenyl)-1-(3,4,5-trimethoxy-benzoyl)-pyrrolidin-3-yl]-ethyl]-4-phenyl-piperidine-4-carboxylic acid amide] | antagonizes both NK1 (on UC11 cells) and NK2 (on SKLKB82#3) receptors in a dose-dependent manner |  | 
COc1cc(C(=O)N2CCC(CCN3CCC(C(N)=O)(c4ccccc4)CC3)(c3ccc(Cl)c(Cl)c3)C2)cc(OC)c1OC (single isomer, unassigned; (+)) [Example 20, (+)-1-[2-[3-(3,4-dichloro-phenyl)-1-(3,4,5-trimethoxy-benzoyl)-pyrrolidin-3-yl]-ethyl]-4-phenylpiperidine-4-carboxylic acid amide] |  | 2.14 nM | 1.00
